This is an account of results in patent US11041000B2, “Peptide inhibitors of interleukin-23 receptor and their use to treat inflammatory diseases” (priority 2019, dated 2021).

Common to all, as to assay type: in vitro ADME
Data set [1] can be described thus: Stability in human fecal homogenate. The following applies: 20% fecal homogenate (supernatant), pH 6.8, 20% human fecal homogenate, anaerobic, 37° C., read-out: t½: Human Feces anaerobic (converted). As to the method: (§1) Centrifuged the homogenate at 2800×g for 15 min. The supernatant is taken out and used for incubations. […] The final test compound concentration was 20 μM.

Data set [2] is described as follows: Stability in simulated intestinal fluid (SIF). The settings on record: simulated intestinal fluid with pancreatin, pH 6.8, 37° C., matrix is 100 fold dilution of standard SIF concentration; for half-life at 20 μM: read-out: SIF t½ (converted); for SIF t½: 20 μM.
Description: SIF was prepared by adding 6.8 g of monobasic potassium phosphate and 10.0 g of pancreatin to 1.0 L of water. After dissolution, the pH was adjusted to 6.8 using NaOH. DMSO stocks (2 mM) were first prepared for the test compounds. Aliquots of the DMSO solutions were dosed into 6 individual tubes, each containing 0.5 mL of SIF, which is pre-warmed to 37° C. The final test compound concentration was 20 μM. The vials were kept in a benchtop Thermomixer® for the duration of the experiment. At each timepoint (0, 5, 10, 20, 40, 60, or 360 minutes or 24 hours), 1.0 mL of acetonitrile containing 1% formic acid was added to one vial to terminate the reaction. Samples were stored at 4° C. until the end of the experiment. After the final timepoint is sampled, the tubes were mixed and then centrifuged at 3,000 rpm for 10 minutes. Aliquots of the supernatant were removed, diluted 1:1 into distilled water containing internal standard, and analyzed by LCMS/MS. Percent remaining at each timepoint was calculated based on the peak area response ratio of test to compound to internal standard. Time 0 was set to 100%, and all later timepoints were calculated relative to time 0. Half-lives were calculated by fitting to a first-order exponential decay equation using Graphpad.
Another data set is described as follows: Stability in rat plasma. The following applies: both sexes, SD rat plasma, EDTA, 37° C., read-out: t½: Rat Plasma EDTA (converted).
A short description of data set [3]: Stability in cynomolgus monkey fecal homogenate. The following applies: 20% fecal homogenate (supernatant), pH 6.8, 20% cynomolgus monkey fecal homogenate, anaerobic, 37° C., read-out: t½: Monkey Feces anaerobic (converted). As to the method:
as §1

Molecules are shown by their SMILES. Numbered stars: 1 amine (or outer) side, 2 acyl side, 3 side chain; on linkers, the order of the positions; unused ones are H or OH. Bridge positions count the residues as written; N and C are the ends. Square brackets hold non-standard residues; d marks the D form. Peptide text beside a SMILES is read from it. Trp(7-Me) = Cc1cccc2c(C[C@H](N)C(=O)O)c[nH]c12; Abu(4-yl) = O=C([C@H](CC[*:3])N[*:1])[*:2]; 2Nal = N[C@@H](Cc1ccc2ccccc2c1)C(=O)O; AEF = NCCOc1ccc(C[C@H](N)C(=O)O)cc1; Cit = NC(=O)NCCC[C@H](N)C(=O)O; Pen = CC(C)(S)[C@H](N)C(=O)O; αMeK = C[C@](N)(CCCCN)C(=O)O; Aib = CC(C)(N)C(=O)O; βAla = NCCC(=O)O

Description for Stability in rat plasma: Peptides of interest (20 μM) were incubated with pre-warmed rat plasma (SD rat, mixed gender pooled, EDTA, filtered through 0.22 μm, BioreclamationIVT) at 37° C. […] Quenched samples were stored at 4° C. until the end of the experiment and centrifuged at 4,000 rpm for 10 minutes. The supernatant were diluted 1:1 with deionized water and analyzed using LC-MS. Percentage remaining at each time point was calculated based on the peak area ratio (analyte over internal standard) relative to the initial level at time zero. Half-lives were calculated by fitting to a first-order exponential decay equation using GraphPad.

Consider `CC(=O)NCCCC[C@@H]1NC(=O)[C@H](Cc2c[nH]c3c(C)cccc23)NC(=O)[C@H]([C@@H](C)O)NC(=O)[C@H](CC(N)=O)NC(=O)[C@@H](NC(C)=O)C(C)(C)SSC(C)(C)[C@@H](C(=O)N[C@@H](Cc2ccc(OCCN)cc2)C(=O)N[C@@H](Cc2ccc3ccccc3c2)C(=O)N[C@@](C)(CCCCN)C(=O)N[C@@H](CCCCNC(C)=O)C(=O)N[C@@H](CC(N)=O)C(=O)N[C@@H](Cc2c[nH]cn2)C(N)=O)NC1=O` [SEQ ID No. 248, Ac-[Pen]-NT-[W(7-Me)]-[Lys(Ac)]-[Pen]-Phe[4-(2-aminoethoxy)]-[2-Nal]-[a-MeLys]-[Lys(Ac)]-N-H-NH2], for which the half-life at 20 μM in data set [1] was more than 22.3 h; in data set [2], 32 h.
For `CC(=O)NCCCC[C@H](NC(=O)[C@](C)(CC(C)C)NC(=O)[C@H](Cc1ccc2ccccc2c1)NC(=O)[C@H](Cc1ccc(OCCN)cc1)NC(=O)[C@H]1NC(=O)[C@H](CCC(N)=O)NC(=O)[C@H](Cc2c[nH]c3c(C)cccc23)NC(=O)[C@H]([C@@H](C)O)NC(=O)[C@H](CC(N)=O)NC(=O)[C@@H](NC(C)=O)C(C)(C)SSC1(C)C)C(=O)N[C@H](C)C(=O)NCCC(N)=O` [compound 209], in data set [2], the half-life at 20 μM was 15 h.
In the case of `CC(=O)NCCCC[C@H](NC(=O)[C@](C)(CC(C)C)NC(=O)[C@H](Cc1ccc2ccccc2c1)NC(=O)[C@H](Cc1ccc(OCCN)cc1)NC(=O)[C@H]1NC(=O)[C@H](CCC(N)=O)NC(=O)[C@H](Cc2c[nH]c3c(C)cccc23)NC(=O)[C@H]([C@@H](C)O)NC(=O)[C@H](CC(N)=O)NC(=O)[C@@H](NC(C)=O)C(C)(C)SSC1(C)C)C(=O)N[C@H](CO)C(=O)NCCC(N)=O` [compound 222], the half-life at 20 μM in data set [2] is 19 h.
For the compound `CC(=O)NCCCC[C@H](NC(=O)[C@](C)(CCCCN)NC(=O)[C@H](Cc1ccc2ccccc2c1)NC(=O)[C@H](Cc1ccc(OCCN)cc1)NC(=O)[C@H]1NC(=O)[C@H](CCC(N)=O)NC(=O)[C@H](Cc2c[nH]c3c(C)cccc23)NC(=O)[C@H]([C@@H](C)O)NC(=O)[C@H](CCCNC(N)=O)NC(=O)[C@@H](NC(C)=O)C(C)(C)SSC1(C)C)C(=O)N[C@@H](CC(N)=O)C(=O)NCCC(N)=O` [compound 238] (Ac-[Pen][Cit]T[Trp(7-Me)]Q[Pen][AEF][2Nal][αMeK]K(Ac)N[βAla]-NH2; disulfide 1-6), in data set [2], the “SIF t½” value was 24 h.
On to `CC(=O)NCCCC[C@@H]1NC(=O)[C@@H](NC(C)=O)C(C)(C)SSC(C)(C)[C@@H](C(=O)N[C@@H](Cc2ccc(OCCN)cc2)C(=O)N[C@@H](Cc2ccc3ccccc3c2)C(=O)N[C@@](C)(CCCCN)C(=O)N[C@@H](CCCCNC(C)=O)C(=O)N[C@@H](CC(N)=O)C(=O)NCCC(N)=O)NC(=O)[C@H](CCC(N)=O)NC(=O)[C@H](Cc2c[nH]c3c(C)cccc23)NC(=O)[C@H]([C@@H](C)O)NC1=O` [compound 239], for which, in data set [2], the “SIF t½” value is 24 h.
For `CC(=O)NCCCC[C@@H]1NC(=O)[C@H](Cc2c[nH]c3c(C)cccc23)NC(=O)[C@H]([C@@H](C)O)NC(=O)[C@H](CC(N)=O)NC(=O)[C@@H](NC(C)=O)C(C)(C)SSC(C)(C)[C@@H](C(=O)N[C@@H](Cc2ccc(OCCN)cc2)C(=O)N[C@@H](Cc2ccc3ccccc3c2)C(=O)N[C@@](C)(CCCCN)C(=O)N[C@@H](CCCCNC(C)=O)C(=O)N[C@@H](CC(N)=O)C(=O)NCCC(N)=O)NC1=O` [compound 242], the “SIF t½” value in data set [2] was 24 h.
On to `CC(=O)NCCCC[C@@H]1NC(=O)[C@H](Cc2c[nH]c3c(C)cccc23)NC(=O)[C@H]([C@@H](C)O)NC(=O)[C@H](CC(N)=O)NC(=O)[C@@H](NC(C)=O)C(C)(C)SSC(C)(C)[C@@H](C(=O)N[C@@H](Cc2ccc(OCCN)cc2)C(=O)N[C@@H](Cc2ccc3ccccc3c2)C(=O)N[C@@](C)(CCCCN)C(=O)N[C@@H](CCCCNC(C)=O)C(=O)N[C@@H](CC(N)=O)C(=O)N[C@@H](CC(C)C)C(N)=O)NC1=O` [compound 244], for which the half-life at 20 μM in data set [1] is 15 h.
Take `CC(=O)NCCCC[C@@H]1NC(=O)[C@H](Cc2c[nH]c3c(C)cccc23)NC(=O)[C@H]([C@@H](C)O)NC(=O)[C@H](CC(N)=O)NC(=O)[C@@H](NC(C)=O)C(C)(C)SSC(C)(C)[C@@H](C(=O)N[C@@H](Cc2ccc(OCCN)cc2)C(=O)N[C@@H](Cc2ccc3ccccc3c2)C(=O)N[C@@](C)(CCCCN)C(=O)N[C@@H](CCCCNC(C)=O)C(=O)N[C@@H](CC(N)=O)C(=O)N[C@@H](CCCNC(N)=O)C(N)=O)NC1=O` [compound 249]: the half-life at 20 μM in data set [1] is more than 17 h; in data set [2], 3 h.
As for `CC(=O)NCCCC[C@@H]1NC(=O)[C@H](Cc2c[nH]c3c(C)cccc23)NC(=O)[C@H]([C@@H](C)O)NC(=O)[C@H](CC(N)=O)NC(=O)[C@@H](NC(C)=O)C(C)(C)SSC(C)(C)[C@@H](C(=O)N[C@@H](Cc2ccc(OCCN)cc2)C(=O)N[C@@H](Cc2ccc3ccccc3c2)C(=O)N[C@@](C)(CCCCN)C(=O)N[C@@H](CCCCNC(C)=O)C(=O)N[C@@H](CC(N)=O)C(=O)N[C@H](C(N)=O)C(C)C)NC1=O` [compound 250], the half-life at 20 μM in data set [1] is more than 19.5 h; in data set [2], 11 h.
Turning to `CC(=O)NCCCC[C@@H]1NC(=O)[C@H](Cc2c[nH]c3c(C)cccc23)NC(=O)[C@H]([C@@H](C)O)NC(=O)[C@H](CC(N)=O)NC(=O)[C@@H](NC(C)=O)C(C)(C)SSC(C)(C)[C@@H](C(=O)N[C@@H](Cc2ccc(OCCN)cc2)C(=O)N[C@@H](Cc2ccc3ccccc3c2)C(=O)N[C@@](C)(CCCCN)C(=O)N[C@@H](CCCCNC(C)=O)C(=O)N[C@@H](CC(N)=O)C(=O)N[C@@H](C(N)=O)C(C)C)NC1=O` [compound 251], the half-life at 20 μM in data set [2] was 20 h.
Consider `CC(=O)NCCCC[C@@H]1NC(=O)[C@H](Cc2c[nH]c3c(C)cccc23)NC(=O)[C@H]([C@@H](C)O)NC(=O)[C@H](CC(N)=O)NC(=O)[C@@H](NC(C)=O)C(C)(C)SSC(C)(C)[C@@H](C(=O)N[C@@H](Cc2ccc(OCCN)cc2)C(=O)N[C@@H](Cc2ccc3ccccc3c2)C(=O)N[C@@](C)(CCCCN)C(=O)N[C@@H](CCCCNC(C)=O)C(=O)N[C@@H](CC(N)=O)C(=O)N2CCC[C@H]2C(N)=O)NC1=O` [compound 253], for which, in data set [2], the half-life at 20 μM is 10 h.
In the case of `CC(=O)NCCCC[C@H](NC(=O)[C@](C)(CCCCN)NC(=O)[C@H](Cc1ccc2ccccc2c1)NC(=O)[C@H](Cc1ccc(OCCN)cc1)NC(=O)[C@H]1NC(=O)[C@H](CCCNC(N)=O)NC(=O)[C@H](Cc2c[nH]c3c(C)cccc23)NC(=O)[C@H]([C@@H](C)O)NC(=O)[C@H](CC(N)=O)NC(=O)[C@@H](NC(C)=O)C(C)(C)SSC1(C)C)C(=O)N[C@@H](CC(N)=O)C(=O)N[C@@H](C(N)=O)[C@H](C)O` [compound 263] (Ac-[Pen]NT[Trp(7-Me)][Cit][Pen][AEF][2Nal][αMeK]K(Ac)N[dT]-NH2; disulfide 1-6), the “SIF t½” value in data set [2] was 24 h.
For the compound `CCCCCCCC(=O)NCCCC[C@@H]1NC(=O)[C@H](Cc2c[nH]c3c(C)cccc23)NC(=O)[C@H]([C@@H](C)O)NC(=O)[C@H](CC(N)=O)NC(=O)[C@@H](NC(C)=O)C(C)(C)SSC(C)(C)[C@@H](C(=O)N[C@@H](Cc2ccc(OCCN)cc2)C(=O)N[C@@H](Cc2ccc3ccccc3c2)C(=O)N[C@@](C)(CCCCN)C(=O)N[C@@H](CCCCNC(C)=O)C(=O)N[C@@H](CC(N)=O)C(=O)N[C@H](CC(C)C)C(N)=O)NC1=O` [compound 317], the half-life at 20 μM (in data set [1]; in “Stability in rat plasma”; in data set [3]) was more than 24 h in each case.
Consider `CC(=O)NCCCC[C@H](NC(=O)[C@](C)(CCCCN)NC(=O)[C@H](Cc1ccc2ccccc2c1)NC(=O)[C@H](Cc1ccc(OCCN)cc1)NC(=O)[C@H]1NC(=O)[C@H](CCCCNC(=O)CC(F)(F)F)NC(=O)[C@H](Cc2c[nH]c3c(C)cccc23)NC(=O)[C@H]([C@@H](C)O)NC(=O)[C@H](CC(N)=O)NC(=O)[C@@H](NC(C)=O)C(C)(C)SSC1(C)C)C(=O)N[C@@H](CC(N)=O)C(=O)N[C@H](CC(C)C)C(N)=O` [compound 319], for which the half-life at 20 μM (in data set [1]; in the data set “Stability in rat plasma”; in data set [3]) was more than 24 h in each case.
As to `CC(=O)NCCCC[C@@H]1NC(=O)[C@H](Cc2c[nH]c3c(C)cccc23)NC(=O)[C@H]([C@@H](C)O)NC(=O)[C@H](CCC(N)=O)NC(=O)[C@@H](NC(=O)[C@@H](CCCNC(=N)N)NC(C)=O)CCSC[C@@H](C(=O)N[C@@H](Cc2ccc(OCCN)cc2)C(=O)N[C@@H](Cc2ccc3ccccc3c2)C(=O)N[C@@](C)(CCCCN)C(=O)N[C@@H](CCCCNC(C)=O)C(=O)N[C@@H](CC(N)=O)C(N)=O)NC1=O` [compound 326] (Ac-[dR][Abu(4-yl)]QT[Trp(7-Me)]K(Ac)C[AEF][2Nal][αMeK]K(Ac)N-NH2; thioether 2-7), the half-life at 20 μM in “Stability in rat plasma” is more than 24 h; in data set [2], 4 h.
Take `CC(=O)NCCCC[C@H](NC(=O)[C@](C)(CCCCN)NC(=O)[C@H](Cc1ccc2ccccc2c1)NC(=O)[C@H](Cc1ccc(OCCN)cc1)NC(=O)[C@H]1NC(=O)[C@H](CCCNC(N)=O)NC(=O)[C@H](Cc2c[nH]c3c(C)cccc23)NC(=O)[C@H]([C@@H](C)O)NC(=O)[C@H](CC(N)=O)NC(=O)[C@@H](NC(C)=O)C(C)(C)SSC1(C)C)C(=O)N[C@@H](CC(N)=O)C(=O)NC(C)(C)C(=O)N[C@@H](CCCNC(=N)N)C(N)=O` [compound 343] (Ac-[Pen]NT[Trp(7-Me)][Cit][Pen][AEF][2Nal][αMeK]K(Ac)N[Aib]R-NH2; disulfide 1-6): the half-life at 20 μM in data set [1] is 12 h; in the data set “Stability in rat plasma”, more than 24 h; in data set [2], 13 h.
